{"source": "paper PMC8163506", "about": "“A novel ATP dependent dimethylsulfoniopropionate lyase in bacteria that releases dimethyl sulfide and acryloyl-CoA” (eLife, 2021)", "biological_target": "T1, DddX (Psychrobacter sp., UniProt Z9QGV9JXN0)", "T1 construct": "full length (2247 bp gene), pET-22b, C-terminal His tag, E. coli BL21(DE3); dimer in solution", "T1 sequence (Z9QGV9JXN0 1-748)": "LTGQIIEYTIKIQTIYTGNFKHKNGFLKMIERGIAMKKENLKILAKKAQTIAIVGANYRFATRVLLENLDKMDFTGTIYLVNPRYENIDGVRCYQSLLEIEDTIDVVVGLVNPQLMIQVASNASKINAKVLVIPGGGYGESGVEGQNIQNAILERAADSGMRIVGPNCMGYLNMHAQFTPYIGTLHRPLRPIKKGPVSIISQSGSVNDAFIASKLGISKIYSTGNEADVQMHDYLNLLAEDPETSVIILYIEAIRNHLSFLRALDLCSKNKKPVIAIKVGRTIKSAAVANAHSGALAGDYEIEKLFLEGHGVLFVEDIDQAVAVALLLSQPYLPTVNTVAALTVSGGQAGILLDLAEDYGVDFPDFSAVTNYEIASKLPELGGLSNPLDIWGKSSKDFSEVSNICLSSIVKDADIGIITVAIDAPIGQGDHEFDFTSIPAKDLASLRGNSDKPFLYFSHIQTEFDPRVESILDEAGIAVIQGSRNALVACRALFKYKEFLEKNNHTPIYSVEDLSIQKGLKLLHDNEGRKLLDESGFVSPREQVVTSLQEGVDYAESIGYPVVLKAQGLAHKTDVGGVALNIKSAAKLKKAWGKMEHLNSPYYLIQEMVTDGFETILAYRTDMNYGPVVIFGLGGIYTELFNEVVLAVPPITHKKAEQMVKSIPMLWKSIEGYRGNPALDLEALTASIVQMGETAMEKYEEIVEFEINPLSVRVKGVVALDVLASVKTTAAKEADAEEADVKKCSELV", "test": "X-ray crystal structure of complex", "format": "binding", "conditions": "1 mM ATP incubated with protein; ATP-grasp domain; crystals at pH 5.5, 18 °C", "data": [{"molecule": "Nc1ncnc2c1ncn2[C@@H]1O[C@H](COP(=O)(O)OP(=O)(O)OP(=O)(O)O)[C@@H](O)[C@H]1O", "note": "[ATP]", "values": [{"measurement": "X-ray crystal structure of complex", "value": "we solved the crystal structure of DddX in complex with ATP"}]}]}
